Laboratory results taken from patent US20220220135A1 (BAR-ILAN UNIVERSITY, priority 2019, published 2022).
Read-outs that look alike come from different tables or passages of the source.

Assays:
[1] = Chemical stability under acidic and basic conditions by 31P-NMR
Excerpt: To evaluate the chemical stability of uridine-5′-Pα,α-dithiophosphate analogues, we measured by 31P-NMR the time-dependent percentage of the analogues remaining under basic and acidic conditions, and due to air-oxidation.

NPP1 = biological target: T1, NPP1 (Homo sapiens, UniProt P22413); experiment: Inhibition of human NPP1, pNP-TMP as substrate (analogues 9-12); format: biochemical
T1 sequence (P22413 1-925): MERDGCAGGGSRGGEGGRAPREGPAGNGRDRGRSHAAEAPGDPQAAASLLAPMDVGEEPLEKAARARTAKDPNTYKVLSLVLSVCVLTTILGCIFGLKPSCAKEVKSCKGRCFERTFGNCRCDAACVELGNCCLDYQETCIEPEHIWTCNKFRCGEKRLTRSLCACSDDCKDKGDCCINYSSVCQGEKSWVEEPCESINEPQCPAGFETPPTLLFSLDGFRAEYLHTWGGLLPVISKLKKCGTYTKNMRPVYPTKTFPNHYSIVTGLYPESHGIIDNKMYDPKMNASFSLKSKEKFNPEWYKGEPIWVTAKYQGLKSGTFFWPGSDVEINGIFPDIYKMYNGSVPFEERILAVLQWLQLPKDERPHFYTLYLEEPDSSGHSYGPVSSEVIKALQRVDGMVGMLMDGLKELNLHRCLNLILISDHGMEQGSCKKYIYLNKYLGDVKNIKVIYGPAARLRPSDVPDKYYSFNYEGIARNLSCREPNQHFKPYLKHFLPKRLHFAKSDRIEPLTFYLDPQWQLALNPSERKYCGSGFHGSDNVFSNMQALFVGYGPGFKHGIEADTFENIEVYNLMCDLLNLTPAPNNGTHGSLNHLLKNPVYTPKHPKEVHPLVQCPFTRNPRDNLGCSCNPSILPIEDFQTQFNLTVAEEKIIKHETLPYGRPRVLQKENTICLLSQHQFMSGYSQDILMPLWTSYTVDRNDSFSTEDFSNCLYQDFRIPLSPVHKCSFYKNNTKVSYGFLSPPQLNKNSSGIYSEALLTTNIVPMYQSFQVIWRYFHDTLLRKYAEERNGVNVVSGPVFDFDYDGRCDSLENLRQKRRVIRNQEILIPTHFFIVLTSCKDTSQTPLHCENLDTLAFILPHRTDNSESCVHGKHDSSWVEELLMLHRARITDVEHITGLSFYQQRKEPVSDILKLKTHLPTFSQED
Protocol: (§1) FIG. 2: Inhibition of NTPDases and NPPs by analogues 9-12 using as substrates ATP (100 μM) for NTPDase1,2,3,8 and pNP-TMP (100 μM) for NPP1,3 (Panel A); and ATP (100 μM) was used as the substrate for NPP1 (Panel B);
Analogues 9-12 were evaluated for their ability to inhibit human NPP1.
(§2) At least 2 independent experiments were performed. In panel A, the activity with 100 μM ATP was set as 100%, which was 287±31, 395±67, 278±22, 119±26 nmol of Pi·min−1·mg of protein−1 for human NTPDase1, -2, -3 and -8, respectively, and the activity with 100 μM pNP-TMP was set as 100% which was 67±5, 21±1 nmol of p-nitrophenol·min−1·mg of protein−1 for human NPP1 and NPP3, respectively. In panel B, the activity with 100 μM ATP was set as 100% which was 34±7 nmol of PPi·min−1·mg of protein−1 for NPP1.

P2Y6R = P2Y6R (Homo sapiens, UniProt Q15077); experiment: P2Y6R agonist activity, inositol-1-phosphate (IP1) accumulation; format: cell-based; set-up: expressed in transfected cells; host or cells: AD293 cells; conditions: vs. UDP
P2Y6R, sequence (Q15077 whole entry): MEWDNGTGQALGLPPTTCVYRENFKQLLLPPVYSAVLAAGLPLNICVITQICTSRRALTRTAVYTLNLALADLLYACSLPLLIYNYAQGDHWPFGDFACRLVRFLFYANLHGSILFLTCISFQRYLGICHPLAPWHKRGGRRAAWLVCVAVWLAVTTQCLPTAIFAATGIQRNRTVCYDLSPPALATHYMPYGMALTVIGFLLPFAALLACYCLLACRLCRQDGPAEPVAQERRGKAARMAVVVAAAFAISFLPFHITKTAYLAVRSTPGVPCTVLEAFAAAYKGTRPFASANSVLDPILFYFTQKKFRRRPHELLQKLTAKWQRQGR
Excerpt: FIG. 3: P2Y6R agonist activity of analogues 9-12 vs. UDP determined by measuring the production of inositol-1-phosphate (IP1);

NTPDase2 = biological target: T2, NTPDase2 (Homo sapiens, UniProt Q9Y5L3); experiment: Inhibition of ATPase activity of human NTPDase2; format: biochemical; conditions: analogue at 100 μM; ATP 100 μM as substrate
T2 sequence (Q9Y5L3 1-495): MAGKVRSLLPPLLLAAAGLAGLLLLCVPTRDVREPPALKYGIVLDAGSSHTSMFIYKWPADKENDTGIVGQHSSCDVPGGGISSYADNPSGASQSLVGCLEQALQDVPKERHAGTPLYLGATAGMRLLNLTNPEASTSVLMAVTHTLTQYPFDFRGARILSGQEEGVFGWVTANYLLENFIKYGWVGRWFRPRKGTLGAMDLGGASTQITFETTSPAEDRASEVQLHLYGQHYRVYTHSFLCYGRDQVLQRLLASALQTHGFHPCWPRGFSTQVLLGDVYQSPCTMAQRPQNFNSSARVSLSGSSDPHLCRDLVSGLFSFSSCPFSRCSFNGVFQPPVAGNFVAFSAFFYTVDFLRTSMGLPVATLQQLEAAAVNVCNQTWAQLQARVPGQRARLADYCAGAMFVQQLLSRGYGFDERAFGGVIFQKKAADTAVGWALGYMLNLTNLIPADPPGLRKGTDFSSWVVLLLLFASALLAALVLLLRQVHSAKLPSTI
Protocol: as §1, §2

NTPDase3 = biological target: T3, NTPDase3 (Homo sapiens, UniProt O75355); experiment: Inhibition of ATPase activity of human NTPDase3; format: biochemical; conditions: analogue at 100 μM; ATP 100 μM as substrate
T3 sequence (O75355 1-529): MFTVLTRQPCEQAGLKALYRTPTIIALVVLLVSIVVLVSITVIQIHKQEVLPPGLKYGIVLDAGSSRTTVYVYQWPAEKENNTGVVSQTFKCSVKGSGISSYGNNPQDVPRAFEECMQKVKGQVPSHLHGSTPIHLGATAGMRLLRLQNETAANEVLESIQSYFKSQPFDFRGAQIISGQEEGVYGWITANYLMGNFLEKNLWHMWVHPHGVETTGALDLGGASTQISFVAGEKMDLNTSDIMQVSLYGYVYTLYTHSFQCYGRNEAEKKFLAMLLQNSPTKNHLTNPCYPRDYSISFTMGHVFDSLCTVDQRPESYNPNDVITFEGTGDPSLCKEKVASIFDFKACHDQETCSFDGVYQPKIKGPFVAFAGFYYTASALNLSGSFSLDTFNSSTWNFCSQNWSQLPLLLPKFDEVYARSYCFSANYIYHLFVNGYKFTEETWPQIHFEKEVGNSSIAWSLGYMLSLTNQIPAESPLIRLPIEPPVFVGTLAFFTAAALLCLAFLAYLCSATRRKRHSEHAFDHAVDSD
Protocol: as §1, §2

[2] = analogue at 100 μM, pNP-TMP 100 μM as substrate
[3] = pNP-TMP as a substrate, mean±SEM
[4] = pNP-TMP as a substrate, mean±SEM, read-out: Ki (μM), NPP1 inhibition

Row | Structure (SMILES) | loss of compound ([1]; basic, pD 12.6, after 16 days) [%] | decomposition ([1]; pD 1.8 (pH 1.4), 16 days, RT) [%] | inhibition of human NPP1 (NPP1; [2]) | IC50 (NPP1; [3]) [µM] | Ki (NPP1; pNP-TMP as the substrate, read-out: Ki, NPP1) [µM] | P2Y6-R agonist activity (IP1 accumulation) (P2Y6R) | inhibition of human NTPDase2 (NTPDase2) | inhibition at 100 µM (NTPDase3) [%] | decomposition ([1]; basic, pD 12.1, after 25 days) [%] | decomposition ([1]; pD 2.1, after 25 days) [%] | Ki (NPP1; [4]) [µM] | inhibition of human NTPDase3 (NTPDase3) | decomposition of starting material ([1]; pD 2.1 (pH 1.7), RT, 23 days) [%] | inhibition at 100 µM (NPP1; [2]) [%]
1 | O=c1ccn([C@@H]2O[C@H](COP(=S)(S)OP(=O)(O)OP(=O)(O)OP(=S)(S)OC[C@H]3O[C@@H](n4ccc(=O)[nH]c4=O)[C@H](O)[C@@H]3O)[C@@H](O)[C@H]2O)c(=O)[nH]1 (some centres unmarked) [Analogue 12] | 13 | 6 | effectively blocked | 0.125 ± 0.004 | 0.027 | limited agonist activities | selective to NPP1 | 24 | – | – | – | – | – | –
2 | O=c1ccn([C@@H]2O[C@H](COP(=S)(S)OP(=O)(O)CP(=O)(O)O)[C@@H](O)[C@H]2O)c(=O)[nH]1 (some centres unmarked) [Analogue 11] | – | – | – | 4.3 ± 0.1 | – | devoid of any P2Y6—R activity | negligible effects | – | 23 | 6 | 1.11 ± 0.19 | negligible effects | – | –
3 | O=c1ccn([C@@H]2O[C@H](COP(=S)(S)OP(=O)(O)OP(=O)(O)O)[C@@H](O)[C@H]2O)c(=O)[nH]1 (some centres unmarked) [Analogue 10] | – | – | – | 1.2 ± 0.1 | – | limited agonist activities | no inhibition | – | 24 | – | 0.24 ± 0.02 | no inhibition | 15 | 100
